SMILES strings stand for the structures. pIC50: −log10 of the molar value.

Assay [1] has as its target BTK recombinant protein (Homo sapiens (Human), UniProt Q06187). Description: Determination of biochemical BTK (Z'-LYTE kinase assay). In short, it runs like this: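 Human BTK recombinant kinase (3.32 nM final) was preincubated with compound for 30 min at 4 °C. Reaction ran 1 h at room temperature with Tyr01 FRET peptide (2 μM) and ATP (32 μM); development protease then added. Coumarin 445 nm/fluorescein 520 nm emission ratio (400 nm excitation) gave inhibition across 8 concentrations, 3000–1.37 nM.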

Assay [2] deals with phosphorylated BTK in Ramos cells (Homo sapiens (Human), UniProt Q06187). Description: Determination of phosphorylated BTK in Ramos cells (BTK phospho-Y223 HTRF). The assay is classed as cell-based. The settings on record: anti-human IgM + hydrogen peroxide stimulation. The protocol: Determination of Phosphorylated BTK in Ramos Cells
Sequence of phosphorylated BTK in Ramos cells (Q06187 whole entry): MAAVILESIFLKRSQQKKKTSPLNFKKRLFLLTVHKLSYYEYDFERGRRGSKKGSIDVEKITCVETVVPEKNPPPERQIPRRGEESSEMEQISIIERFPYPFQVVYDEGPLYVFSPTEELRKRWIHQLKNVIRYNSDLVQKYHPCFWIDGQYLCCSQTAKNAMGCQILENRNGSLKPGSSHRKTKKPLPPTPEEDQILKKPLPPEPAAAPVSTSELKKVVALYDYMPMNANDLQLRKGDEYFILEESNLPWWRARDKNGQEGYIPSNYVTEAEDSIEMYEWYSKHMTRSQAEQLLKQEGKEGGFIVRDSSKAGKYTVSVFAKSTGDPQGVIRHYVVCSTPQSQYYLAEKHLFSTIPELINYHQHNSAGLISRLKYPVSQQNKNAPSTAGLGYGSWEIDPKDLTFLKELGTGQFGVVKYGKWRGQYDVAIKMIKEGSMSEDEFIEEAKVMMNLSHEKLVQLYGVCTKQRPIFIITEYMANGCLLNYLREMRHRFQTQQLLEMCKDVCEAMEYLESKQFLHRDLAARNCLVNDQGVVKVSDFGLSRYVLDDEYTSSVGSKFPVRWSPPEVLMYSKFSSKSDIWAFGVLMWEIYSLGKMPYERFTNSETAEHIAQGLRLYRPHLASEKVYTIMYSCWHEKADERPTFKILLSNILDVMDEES
1. Reagents and Materials
Ramos cells: Ramos cells were purchased from American Standard Biological Collection Center ATCC Cell Bank, PRMI 1640 medium containing L-glutamine, 1.5 g/L of sodium bicarbonate, 2.383 g/L of HEPES solution, 0.11 g/L of sodium pyruvate and 4.5 g/L of glucose was used, added 10% fetal bovine serum FBS, and placed in a 5% CO2, 37° C. cell incubator for normal culture;
Phosphorylated BTK HTRF detection kit (BTK phospho-Y223 HTRF kit): Cisbio, Cat #63ADK017PEH;
Ramos cells were starved in PRMI 1640 medium with 1% FBS for 2 hours. The starved Ramos cells were diluted with Hank's balanced salt solution to 5.0×10^6 cells/ml, seeded in a 96-well plate with 20 μL/well (1.0×10^5 cells/well), and cultured in a 5% CO2, 37° C. cell incubator. After culturing for 1 hour, the test compound was diluted with Hank's balanced salt solution in 4-fold gradient to the corresponding concentrations, and then 5 μL/well of the diluted test compound with different concentrations (the final concentrations of the test compound were 3.0, 0.75, 0.188, 0.047, 0.012, 0.0029, 0.0007 and 0.00018 μM, and the final concentration of DMSO was 0.3%, double replicate wells) or 5 μL/well of control solution (1.5% DMSO, 8 replicate wells) were added to 20 μL/well of cell culture system, which incubated together for another hour, then 5 μL/well of a mixed solution of human immunoglobulin M (final concentration was 10 μg/mL) and hydrogen peroxide (final concentration was 3.3 mM) diluted with Hank's balanced salt solution was added to the treating wells for the test compound and the control treating wells for anti-human immunoglobulin M, and 5 μL/well of Hank's balanced salt solution was added to negative control treating wells. The plate was incubated in a 5% CO2, 37° C. cell incubator for 10 minutes.
10 μL/well of cell lysis buffer was added to each well of a 96-well plate, which was mixed well and lysed at room temperature for 30 minutes. 16 μL/well of lysis buffer was pipetted to a new 384 well plate, and then added 4 μL/well of phosphorylated BTK antibody, centrifuged (1000 rpm) for 1 minute, then shaken for 1 minute, further centrifuged (1000 rpm) for 1 minute, and finally placed in a constant temperature incubator overnight. Detection was performed on the next day.
The 384 well plate incubated overnight in the constant temperature incubator was taken out to detect the luminescence signal using the Envision microwell plate reader at the […]. The reading value at 665 nm/615 nm of each well multiplied by 104 was used as the signal value of each well.
The average signal value of the wells supplemented with the mixed solution of human immunoglobulin M (final concentration was 10 μg/mL) and hydrogen peroxide (final concentration was 3.3 mM) without the test compound was regarded as the high value, and the average signal value of the wells without immunoglobulin M stimulation and without the test compound was regarded as the low value. According to the signal value in each well, the inhibition ratio (%) of each concentration of compounds was calculated, and the 205 model in XL-Fit 5.3 software (ID Business Solutions Limited) was used to obtain an IC50 value.
The inhibition ratio is calculated as follows: inhibition ratio (%)=100%−{(treating well for the test compound−negative control treating well)/(control treating well for anti-human immunoglobulin M−negative control treating well)}×100%, wherein,
Treating well for the test compound: represents the signal value of Ramos cells treated with anti-human immunoglobulin M, hydrogen peroxide and the test compound.
Control treating well for anti-human immunoglobulin M: represents the signal value of Ramos cells treated with anti-human immunoglobulin M, hydrogen peroxide but without the test compound. […]

Sequence of BTK recombinant protein (Q06187 whole entry): as above

Regarding `Cc1cc(Nc2cc(-c3ccnc(-n4ccn5c6c(cc5c4=O)CC(C)(C)C6)c3CO)cn(C)c2=O)ncn1` [Compound 54], the pIC50 (in general, −log10 of the IC50, conventionally taken in molar units) in assay [1] was 7.82; in assay [2] it was 7.80.
In the same order, the values of `Cn1cc(-c2ccnc(-n3ccn4c5c(cc4c3=O)CC(C)(C)C5)c2CO)cc(Nc2ccccn2)c1=O` [Compound 55] are 7.72 and 8.10.
For the molecule `C[C@@H]1CN(c2ccc(Nc3cc(-c4ccnc(-n5ccn6c(c(F)c7cc(F)ccc76)c5=O)c4CO)cn(C)c3=O)nc2)[C@@H](C)CN1C1COC1` [Compound 61], the pIC50 in assay [1] is 8.40; in assay [2], 8.70.
Turning to `C[C@H]1CN(C2COC2)CCN1c1ccc(Nc2cc(-c3ccnc(-n4ccn5c6c(c(Br)c5c4=O)CC(C)(C)C6)c3CO)cn(C)c2=O)nc1` [Compound 62], the pIC50 in assay [1] was 7.68; in assay [2], 8.52.
In the same order, the values of `C[C@H]1CN(C2COC2)CCN1c1ccc(Nc2cc(-c3ncnc(-n4ccn5c6c(cc5c4=O)CC(C)(C)C6)c3CO)cn(C)c2=O)nc1` [Compound 65] are 7.85 and 8.70.
For `C[C@H]1CN(C2CCOC2)CCN1c1ccc(Nc2cc(-c3ccnc(-n4ccn5c6c(cc5c4=O)CC(C)(C)C6)c3CO)cn(C)c2=O)nc1` (some centres unmarked) [Compound 66], in that order: 7.96 and 8.70.
In the case of `C[C@H]1CN(C2COC2)CCN1c1ccc(Nc2cc(-c3ccnc(-n4ccn5c(cc6cccnc65)c4=O)c3CO)cn(C)c2=O)nc1` [Compound 67], the pIC50 is 7.09 in assay [1] and 7.22 in assay [2].
For the molecule `CC(=O)N1CCn2nc(Nc3cc(-c4ccnc(-n5ccn6c7c(cc6c5=O)CC(C)(C)C7)c4CO)cn(C)c3=O)cc2C1` [Compound 68, 2-(5-((5-acetyl-4,5,6,7-tetrahydropyrazolo[1,5-a]pyrazin-2-yl)amino)-3′-(hydroxymethyl)-1-methyl-6-oxo-1,6-dihydro-[3,4′-bispyridin]-2′-yl)-7,7-dimethyl-7,8-dihydro-2H-cyclopenta[4,5]pyrrolo[1,2-a]pyrazin-1(6H)-one], the figures for the negative logarithm of the IC50 (pIC50) in assay [1] and in assay [2] were 8.30 and 8.70, respectively.
For `COCCN1CCn2nc(Nc3cc(-c4ccnc(-n5ccn6c7c(cc6c5=O)CC(C)(C)C7)c4CO)cn(C)c3=O)cc2C1` [Compound 70, 2-(3′-(hydroxymethyl)-5-((5-(2-methoxymethyl)-4,5,6,7-tetrahydropyrazolo[1,5-a]pyrazin-2-yl)amino)-1-methyl-6-oxo-1,6-dihydro-[3,4′-bispyridin]-2′-yl)-7,7-dimethyl-7,8-dihydro-2H-cyclopenta[4,5]pyrrolo[1,2-a]pyrazin-1(6H)-one], in that order: 8.00 and 8.70.
With `C[C@H]1CN(C2COC2)CCN1c1ccc(Nc2cc(-c3ccnc(-n4ccn5c6c(cc5c4=O)CC(C)(C)C6)c3C=O)cn(C)c2=O)nc1` [Compound 72], the figures for the pIC50 in assay [1] and in assay [2] were 7.24 and 7.01, respectively.
`Cn1cc(Nc2cc(-c3ccnc(-n4ccn5c6c(cc5c4=O)CCC6)c3CO)cn(C)c2=O)nn1` [Compound 73]: the negative logarithm of the IC50 (pIC50) in assay [1] was 6.67; in assay [2], 6.94.
For `C[C@H]1CN(C2COC2)CCN1c1ccc(Nc2cc(-c3ccnc(-n4ccn5c(cc6ccccc65)c4=O)c3CO)nn(C)c2=O)nc1` [Compound 76], in that order: 6.91 and 7.22.
For `Cn1cc(-c2ccnc(-n3ccn4c5c(cc4c3=O)CC(C)(C)C5)c2CO)cc(Nc2ccccc2)c1=O` [Compound 77], in that order: 6.36 and 6.88.
In the same order, the values of `C[C@@H]1CN(C2COC2)CCN1c1ccc(Nc2cc(-c3ccnc(-n4ccn5c6c(cc5c4=O)CC(C)(C)C6)c3CO)cn(C)c2=O)nc1` [Compound 80] are 8.30 and 8.70.
With `Cn1ccc(Nc2cc(-c3ccnc(-n4ccn5c6c(cc5c4=O)CC(C)(C)C6)c3CO)cn(C)c2=O)n1` [Compound 81], the pIC50 in assay [1] is 8.10; in assay [2], 8.70.
For `Cc1cc(Nc2cc(-c3ccnc(-n4ccn5c6c(cc5c4=O)CC(C)(C)C6)c3CO)cn(C)c2=O)nn1C` [Compound 82], in that order: 8.22 and 8.70.
For `Cn1cc(-c2ccnc(-n3ccn4c5c(cc4c3=O)CC(C)(C)C5)c2CO)cc(Nc2ccncn2)c1=O` [Compound 83], in that order: 7.89 and 7.89.
In the same order, the values of `Cn1cc(-c2ccnc(-n3ccn4c5c(cc4c3=O)CC(C)(C)C5)c2CO)cc(Nc2cccnn2)c1=O` [Compound 84] are 8.05 and 7.96.
On to `Cc1ccc(Nc2cc(-c3ccnc(-n4ccn5c6c(cc5c4=O)CC(C)(C)C6)c3CO)cn(C)c2=O)nn1` [Compound 85], for which the negative logarithm of the IC50 (pIC50) in assay [1] was 7.96; in assay [2], 8.70.
For `Cn1cc(Nc2cc(-c3ccnc(-n4ccn5c6c(cc5c4=O)CC(C)(C)C6)c3CO)cn(C)c2=O)cn1` [Compound 86], in that order: 7.80 and 8.22.
Turning to `Cc1cc(Nc2cc(-c3ccnc(-n4ccn5c6c(cc5c4=O)CC(C)(C)C6)c3CO)cn(C)c2=O)no1` [Compound 87], the pIC50 in assay [1] was 7.96; in assay [2], 8.52.
In the same order, the values of `Cn1cc(-c2ccnc(-n3ccn4c5c(cc4c3=O)CC(C)(C)C5)c2CO)cc(NC(=O)C2CC2)c1=O` [Compound 89] are 7.96 and 8.10.
In the same order, the values of `Cn1cc(-c2ccnc(-n3ccn4c5c(cc4c3=O)CC(C)(C)C5)c2CO)cc(Nc2ccc(F)cn2)c1=O` [Compound 90] are 7.59 and 8.15.
For `CC[C@H]1CN(C2COC2)CCN1c1ccc(Nc2cc(-c3ccnc(-n4ccn5c6c(cc5c4=O)CC(C)(C)C6)c3CO)cn(C)c2=O)nc1` [Compound 91], in that order: 7.77 and 8.40.
Take `C[C@H]1CN(C2COC2)CCN1c1ccc(Nc2cc(-c3ccnc(-n4ccn5c6c(cc5c4=O)CCCCC6)c3CO)cn(C)c2=O)nc1` [Compound 92]: the values for the pIC50 in assay [1] and in assay [2] were 8.00 and 8.15, respectively.
For `C[C@H]1CN(C2COC2)CCN1c1ccc(Nc2cc(-c3ccnc(-n4ccn5c6c(cc5c4=O)COCC6)c3CO)cn(C)c2=O)nc1` [Compound 93], in that order: 7.31 and 7.34.
In the same order, the values of `[2H]C1(N2CCN(c3ccc(Nc4cc(-c5ccnc(-n6ccn7c8c(cc7c6=O)CC(C)(C)C8)c5CO)cn(C)c4=O)nc3)[C@@H](C)C2)COC1` [Compound 94] are 8.15 and 8.70.
In the same order, the values of `Cn1cc(-c2ccnc(-n3ccn4c5c(cc4c3=O)CC(C)(C)C5)c2CO)cc(Nc2ccc(N3CCN(C4COC4)CC3(C)C)cn2)c1=O` [Compound 95] are 8.00 and 8.52.
In the case of `C[C@H]1CNCCN1c1ccc(Nc2cc(-c3ccnc(-n4ccn5c6c(cc5c4=O)CC(C)(C)C6)c3CO)cn(C)c2=O)nc1` [Compound 96], the pIC50 in assay [1] is 8.15; in assay [2] it was 8.30.
`[2H]C([2H])([2H])n1cc(-c2ccnc(-n3ccn4c5c(cc4c3=O)CC(C)(C)C5)c2CO)cc(Nc2ccc(N3CCN(C4COC4)C[C@@H]3C)cn2)c1=O` [Compound 97]: the figures for the negative logarithm of the IC50 (pIC50) in assay [1] and in assay [2] were 8.05 and 8.52, respectively.
In the same order, the values of `Cn1nc(Nc2cc(-c3ccnc(-n4ccn5c6c(cc5c4=O)CC(C)(C)C6)c3CO)cn(C)c2=O)cc1C(=O)N1CCOCC1` [Compound 99] are 8.22 and 8.40.
